From US6582351B1, “Imidazopyridinone derivatives and their use as phosphodiesterase inhibitors” (Fujisawa Pharmaceutical Co., Ltd., priority 1999, dated 2003)

Test system: not given
Assay: not given
Details: not given

melting point [°C]	Compound
191 to 193	COc1ccc(Cn2c(=O)n([C@H]3CC[C@H](O)CC3)c3ccc(C#N)cc32)cc1C#N [Example 2(81), 5-Cyano-3-(3-cyano-4-methoxybenzyl)-1-(trans-4-hydroxycyclohexyl)-2,3-dihydro-1H-benzimidazol-2-one]
154.5 to 155	COc1ccc(Cn2c(=O)n([C@H](C)CO)c3ncc(C(F)(F)F)cc32)cc1Cl [Example 4(2), 1-(3-Chloro-4-methoxybenzyl)-3-((R)-2-hydroxy-1-methylethyl)-6-trifluoromethyl-2,3-dihydro-1H-imidazo[4,5-b]pyridin-2-one]
158 to 160	COc1ccc(Cn2c(=O)n(-c3ccc4[nH]cnc4c3)c3ccc(C(F)(F)F)cc32)cc1Cl [Example 2(21), 1-(1H-Benzimidazol-5-yl)-3-(3-chloro-4-methoxybenzyl)-5-trifluoromethyl-2,3-dihydro-1H-benzimidazol-2-one]
174 to 175	COc1ccc(Cn2c(=O)n(-c3ccc4[nH]cnc4c3)c3ccc(C(F)(F)F)cc32)cc1OC [Example 2(20), 1-(1H-Benzimidazol-5-yl)-3-(3,4-dimethoxybenzyl)-5-trifluoromethyl-2,3-dihydro-1H-benzimidazol-2-one]
170 to 171.5	COc1cc(Cn2c(=O)n(C3CCCC3)c3ccc([N+](=O)[O-])cc32)ccc1Cl [Example 2(2), 3-(4-Chloro-3-methoxybenzyl)-1-cyclopentyl-5-nitro-2,3-dihydro-1H-benzimidazol-2-one]
197 to 198	COc1ccc(Cn2c(=O)n([C@H]3CC[C@@H](O)CC3)c3ncc(C#N)cc32)cc1Cl [Example 24, 1-(3-chloro-4-methoxybenzyl)-6-cyano-3-(cis-4-hydroxycyclohexyl)-2,3-dihydro-1H-imidazo[4,5-b]pyridin-2-one]
153.5 to 155	COc1ccc(Cn2c(=O)n(C(C)C)c3ccc(C(F)(F)F)cc32)cc1Cl [Example 2(35), 3-(3-Chloro-4-methoxybenzyl)-1-isopropyl-5-trifluoromethyl-2,3-dihydro-1H-benzimidazol-2-one]
175 to 176	COc1ccc(Cn2c(=O)n([C@H]3CC[C@H](O)CC3)c3ccc([N+](=O)[O-])cc32)cc1OC [Example 2(3), 3-(3,4-Dimethoxybenzyl)-1-(trans-4-hydroxycyclohexyl)-5-nitro-2,3-dihydro-1H-benzimidazol-2-one]
160.5 to 162	COc1ccc(Cn2c(=O)n([C@H]3CC[C@H](O)CC3)c3ccc(C(=O)c4ccccc4)cc32)cc1Cl [Example 4(6), 5-Benzoyl-3-(3-chloro-4-methoxybenzyl)-1-(trans-4-hydroxycyclohexyl)-2,3-dihydro-1H-benzimidazol-2-one]
167 to 168	COc1ccc(Cn2c(=O)n([C@H]3CC[C@H](O)CC3)c3ccc(C(F)(F)F)cc32)cc1Cl [Example 2(24), 3-(3-Chloro-4-methoxybenzyl)-1-(trans-4-hydroxycyclohexyl)-5-trifluoromethyl-2,3-dihydro-1H-benzimidazol-2-one]
164 to 165	COc1ccc(Cn2c(=O)n([C@H](C)CO)c3ncc(C#N)cc32)cc1Cl [Example 4(8), 1-(3-Chloro-4-methoxybenzyl)-6-cyano-3-((R)-2-hydroxy-1-methylethyl)-2,3-dihydro-1H-imidazo[4,5-b]pyridin-2-one]
164 to 165.5	COc1ccc(Cn2c(=O)n([C@H]3CC[C@H](NC(N)=O)CC3)c3ccc(C(F)(F)F)cc32)cc1Cl [Example 14(2), 1-(trans-4-Ureidocyclohexyl)-3-(3-chloro-4-methoxybenzyl)-5-trifluoromethyl-2,3-dihydro-1H-benzimidazol-2-one]
176 to 177	COc1ccc2c(c1)n(Cc1ccc(OC)c(OC)c1)c(=O)n2[C@H]1CC[C@H](O)CC1 [Example 2(11), 3-(3,4-Dimethoxybenzyl)-1-(trans-4-hydroxycyclohexyl)-5-methoxy-2,3-dihydro-1H-benzimidazol-2-one]
160 to 161	COc1ccc(Cn2c(=O)n(C3CCCCC3)c3ccc(C(F)(F)F)cc32)cc1Cl [Example 2(37), 1-Cyclohexyl-3-(3-chloro-4-methoxybenzyl)-5-trifluoromethyl-2,3-dihydro-1H-benzimidazol-2-one]

Compound	melting point [°C]
COc1ccc(Cn2c(=O)n([C@H]3CCN(C(=O)OC(C)(C)C)C3)c3ccc(C(F)(F)F)cc32)cc1Cl [Example 2(19), 1-((S)-1-tert-Butoxycarbonylpyrrolidin-3-yl)-3-(3-chloro-4-methoxybenzyl)-5-trifluoromethyl-2,3-dihydro-1H-benzimidazol-2-one]	157 to 157.5

Biological target: T1, human platelet PDE-V (Homo sapiens, UniProt O76074)
T1 construct: Human platelet cGMP-PDE was separated from other isozymes in human platelets; from tissue; host or cells: human platelets
Assay: cGMP-Phosphodiesterase (PDE) assay; enzymatic inhibitory test against human platelet PDE-V
Type: biochemical
Details: 0.1 μM [3H]-cGMP substrate, 30° C., 10 minutes
Procedure: [II] Test Method: cGMP-Phosphodiesterase (PDE) Assay
Human platelet cGMP-PDE was separated from other isozymes in human platelets by a modification of the method of Thompson et. al. (see Cyclic Nucleotide Phosphodiesterase (PDE), in Methods of Enzymatic analysis, Vol 4, p127-234, 1984). Specific inhibitory activity of PDE-V was measured by following procedure. In enzyme inhibition assays, the test compounds were dissolved in DMSO and then diluted with assay buffer (50 mM Tris-HCl, 0.077 mg/ml dithiothreitol and 10 mg/ml snake venom, 1 mM EGTA, pH 8.0), at final concentrations ranging from 10^−10 to 10^−6 M. Assays were performed at 0.1 μM substrate ([^3H]-cGMP) concentration, at 30° C. for 10 minutes using enzyme dilutions which gave 10-20% hydrolysis of substrate. Each assay was initiated by addition of substrate and terminated by addition of anion exchange resin (Dowex® 1-X8, […]) followed by centrifugation for 10 minutes (3000 rpm, at 4° C.). Radioactivity of supernatant ([^3H]-GMP) was assayed by liquid scintillation counting.

IC50 [nM]	Compound
< 10	COc1ccc(Cn2c(=O)n([C@H]3CC[C@H](O)CC3)c3ccc(C#N)cc32)cc1C#N [Example 2(81), 5-Cyano-3-(3-cyano-4-methoxybenzyl)-1-(trans-4-hydroxycyclohexyl)-2,3-dihydro-1H-benzimidazol-2-one]
< 10	COc1ccc(Cn2c(=O)n(C3CCN(C)CC3)c3ccc(C#N)cc32)cc1Cl [Example 28, 3-(3-chloro-4-methoxybenzyl)-5-cyano-1-(1-methylpiperidin-4-yl)-2,3-dihydro-1H-benzimidazole-2-one]
< 10	COc1ccc(Cn2c(=O)n([C@H](C)CO)c3ncc(C(F)(F)F)cc32)cc1Cl [Example 4(2), 1-(3-Chloro-4-methoxybenzyl)-3-((R)-2-hydroxy-1-methylethyl)-6-trifluoromethyl-2,3-dihydro-1H-imidazo[4,5-b]pyridin-2-one]
< 10	COc1ccc(Cn2c(=O)n(-c3ccc4[nH]cnc4c3)c3ccc(C(F)(F)F)cc32)cc1Cl [Example 2(21), 1-(1H-Benzimidazol-5-yl)-3-(3-chloro-4-methoxybenzyl)-5-trifluoromethyl-2,3-dihydro-1H-benzimidazol-2-one]
< 10	COc1ccc(Cn2c(=O)n(C3CCC4OC(C)(C)OC4C3)c3ccc(C#N)cc32)cc1Cl (centres unmarked) [Example 2(95), 3-(3-Chloro-4-methoxybenzyl)-5-cyano-1-(t-3,t-4-isopropylidenedioxy-r-1-cyclohexyl)-2,3-dihydro-1H-benzimidazol-2-one]
< 10	COc1ccc(Cn2c(=O)n([C@H]3CC[C@H](O)CC3)c3ncc(C#N)cc32)cc1Cl [Example 33, 1-(3-chloro-4-methoxybenzyl)-6-cyano-3-(trans-4-hydroxycyclohexyl)-2,3-dihydro-1H-imidazo[4,5-b]pyridin-2-one]

Compound	IC50 [nM]
COc1ccc(Cn2c(=O)n([C@H]3CC[C@H](O)CC3)c3ccc([N+](=O)[O-])cc32)cc1[N+](=O)[O-] [Example 2(109), 1-(trans-4-Hydroxycyclohexyl)-3-(4-methoxy-3-nitrobenzyl)-5-nitro-1,3-dihydro-2H-benzimidazol-2-one]	< 10
COc1ccc(Cn2c(=O)n([C@H]3CCN(C(=O)OC(C)(C)C)C3)c3ccc(C#N)cc32)cc1Cl [Example 2(60), 1-[(S)-1-tert-Butoxycarbonylpyrrolidin-3-yl]-3-(3-chloro-4-methoxybenzyl)-5-cyano-2,3-dihydro-1H-benzimidazol-2-one]	< 10
